Experimental data from ChEMBL document CHEMBL4507292 (2021).
pIC50, pKi: −log10 of the molar value.

Columns and labels:
[1] = biological target: Synaptic vesicular amine transporter (Homo sapiens) (UniProt Q05940); settings: Oryctolagus cuniculus
[2] = biological target: Protein kinase C iota type (Homo sapiens) (UniProt P41743); settings: Compound concentration 1000.0 nM
Rattus norvegicus [3] = organism: Rattus norvegicus; assay: Serotonin (5-Hydroxytryptamine) 5-HT1, Non-Selective Eurofins-Panlabs radioligand binding assay; assay type: protein assay; settings: concentration not given here
[4] = biological target: Protein kinase C alpha type (Homo sapiens) (UniProt P17252); assay: Inhibition of Protein Serine/Threonine Kinase, PRKCA (PKCα) at 10 µM in the Eurofins-Panlabs enzyme assay (Eurofins_assay_180010); set-up: substrate with concentration Histone, incubation time 10 min, incubation temperature 25 °C; settings: Compound concentration […]
[5] = biological target: Glutamate NMDA receptor; GRIN1/GRIN2A (Homo sapiens) (UniProt Q05586+Q12879); assay: NMDA-NR1a/NR2a Eurofins-Panlabs radioligand binding assay; assay type: protein-complex assay; settings: Compound concentration 10.0 uM
[6] = biological target: 5-hydroxytryptamine receptor 6 (Homo sapiens) (UniProt P50406); assay: Inhibition of Serotonin (5-Hydroxytryptamine) 5-HT6 at 10 µM in the Eurofins-Panlabs radioligand binding assay (Eurofins_assay_272200)
[7] = biological target: Galanin receptor type 1 (Homo sapiens) (UniProt P47211); assay: Galanin GAL1 Eurofins-Panlabs radioligand binding assay; settings: Compound concentration 10.0 uM
[8] = (§1) Protein Serine/Threonine Kinase, MAPK14 (p38α) Eurofins-Panlabs enzyme assay; set-up: species or system Homo sapiens; substrate with concentration 10 µg/mL Myelin Basic Protein (MBP), incubation time 60 min, incubation temperature 25 °C
Homo sapiens [9] = organism: Homo sapiens; assay: as §1; set-up: substrate with concentration 10 µg/mL Myelin Basic Protein (MBP), incubation time 60 min, incubation temperature 25 °C
[10] = biological target: D(2) dopamine receptor (Homo sapiens) (UniProt P14416); settings: Compound concentration 10.0 uM
Homo sapiens [11] = organism: Homo sapiens; assay: Calcitonin Gene-Related Peptide CGRP1 Eurofins-Panlabs radioligand binding assay; assay type: protein-complex assay; settings: Compound concentration 10.0 uM
[12] = biological target: Voltage-dependent N-type calcium channel subunit alpha-1B (Homo sapiens) (UniProt Q00975); assay: Inhibition of Calcium Channel N-Type at 10 µM in the Eurofins-Panlabs radioligand binding assay (Eurofins_assay_216000); settings: Rattus norvegicus; Compound concentration 10.0 uM
[13] = biological target: Glutamate NMDA receptor (Rattus norvegicus) (UniProt P35439+Q00959+Q00960+Q00961+Q62645+Q8VHN2+Q9R1M7); settings: Compound concentration 10.0 uM
[14] = biological target: Beta-1 adrenergic receptor (Homo sapiens) (UniProt P08588); settings: Compound concentration 10.0 uM
[15] = biological target: Mitogen-activated protein kinase 3 (Homo sapiens) (UniProt P27361); assay: Inhibition of Protein Serine/Threonine Kinase, MAPK3 (ERK1) at 10 µM in the Eurofins-Panlabs enzyme assay (Eurofins_assay_171000); settings: Compound concentration […]
[16] = biological target: T1, 5-hydroxytryptamine receptor 3A (Homo sapiens) (UniProt P46098); assay: Inhibition of Serotonin (5-Hydroxytryptamine) 5-HT3 at 10 µM in the Eurofins-Panlabs radioligand binding assay (Eurofins_assay_271910); set-up: ligand concentration 0.69 nM; settings: Compound concentration 10.0 uM
T1 sequence (whole entry): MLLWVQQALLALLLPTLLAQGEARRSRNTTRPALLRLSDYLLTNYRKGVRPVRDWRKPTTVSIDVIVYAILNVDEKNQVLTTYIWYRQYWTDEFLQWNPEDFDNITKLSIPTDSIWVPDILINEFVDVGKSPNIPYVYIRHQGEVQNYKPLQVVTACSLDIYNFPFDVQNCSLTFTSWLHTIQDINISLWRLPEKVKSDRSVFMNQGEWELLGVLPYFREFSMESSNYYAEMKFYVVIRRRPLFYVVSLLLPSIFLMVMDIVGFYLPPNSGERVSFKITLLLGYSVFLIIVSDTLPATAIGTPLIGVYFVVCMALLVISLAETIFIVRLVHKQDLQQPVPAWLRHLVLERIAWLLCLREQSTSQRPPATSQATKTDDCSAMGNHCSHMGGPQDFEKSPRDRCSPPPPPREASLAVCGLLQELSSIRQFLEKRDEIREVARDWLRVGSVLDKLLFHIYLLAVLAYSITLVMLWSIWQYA

[17] = biological target: Cysteinyl leukotriene receptor 1 (Homo sapiens, UniProt Q9Y271); assay: (§2) Inhibition of Leukotriene, Cysteinyl CysLT1 at 10 µM in the Eurofins-Panlabs radioligand binding assay (Eurofins_assay_250460); set-up: ligand concentration 0.3 nM, non-specific ligand with concentration 0.3 µM Leukotriene D4, incubation time 30 min, incubation temperature 25 °C
[18] = biological target: T2, Cysteinyl leukotriene receptor 1 (Homo sapiens) (UniProt Q9Y271); assay: as §2; set-up: ligand concentration 0.3 nM, non-specific ligand with concentration 0.3 µM Leukotriene D4, incubation time 30 min, incubation temperature 25 °C
T2 sequence (whole entry): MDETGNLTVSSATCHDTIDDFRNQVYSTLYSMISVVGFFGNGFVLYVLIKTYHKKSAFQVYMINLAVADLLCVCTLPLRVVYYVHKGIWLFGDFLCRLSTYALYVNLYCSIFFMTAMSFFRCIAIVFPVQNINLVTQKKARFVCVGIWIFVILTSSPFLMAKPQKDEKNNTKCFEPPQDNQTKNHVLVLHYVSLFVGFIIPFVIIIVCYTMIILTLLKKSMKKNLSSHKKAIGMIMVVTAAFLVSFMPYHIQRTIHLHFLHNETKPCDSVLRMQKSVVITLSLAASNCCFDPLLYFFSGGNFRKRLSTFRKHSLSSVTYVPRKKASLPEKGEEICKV

[19] = biological target: Substance-K receptor (Homo sapiens) (UniProt P21452); assay: Inhibition of Tachykinin NK2 at 10 µM in the Eurofins-Panlabs radioligand binding assay (Eurofins_assay_255600); set-up: ligand concentration 0.5 nM; settings: Compound concentration 10.0 uM
Oryctolagus cuniculus = organism: Oryctolagus cuniculus; assay: Inhibition of Purinergic P2X at 10 µM in the Eurofins-Panlabs radioligand binding assay (Eurofins_assay_268700); assay type: protein assay; settings: Compound concentration 10.0 uM
[20] = biological target: Kappa-type opioid receptor (Homo sapiens, UniProt P41145)
[21] = biological target: Prostaglandin E2 receptor EP1 subtype (Homo sapiens) (UniProt P34995); assay: Prostanoid EP1 Eurofins-Panlabs radioligand binding assay; settings: Compound concentration 10.0 uM
[22] = biological target: Tyrosine 3-monooxygenase (Homo sapiens) (UniProt P07101); assay: Tyrosine Hydroxylase Eurofins-Panlabs enzyme assay; set-up: substrate with concentration; settings: Rattus norvegicus; Compound concentration 10.0 uM
[23] = biological target: Neurotensin receptor type 1 (Homo sapiens, UniProt P30989); assay: Neurotensin NT1 Eurofins-Panlabs radioligand binding assay; set-up: ligand concentration 0.02 nM, non-specific ligand with concentration 1 µM Neurotensin, incubation time 45 min, incubation temperature 25 °C
Caspase-6 (Homo sapiens) = Caspase-6 (Homo sapiens) (UniProt P55212); assay: Peptidase, CASP6 (Caspase 6) Eurofins-Panlabs enzyme assay; set-up: substrate with concentration; settings: Compound concentration 10.0 uM
Rattus norvegicus [24] = organism: Rattus norvegicus; assay: Inhibition of Glycine, Strychnine-Sensitive at 10 µM in the Eurofins-Panlabs radioligand binding assay (Eurofins_assay_239000); settings: Compound concentration 10.0 uM

Kappa-type opioid receptor, sequence (P41145 whole entry): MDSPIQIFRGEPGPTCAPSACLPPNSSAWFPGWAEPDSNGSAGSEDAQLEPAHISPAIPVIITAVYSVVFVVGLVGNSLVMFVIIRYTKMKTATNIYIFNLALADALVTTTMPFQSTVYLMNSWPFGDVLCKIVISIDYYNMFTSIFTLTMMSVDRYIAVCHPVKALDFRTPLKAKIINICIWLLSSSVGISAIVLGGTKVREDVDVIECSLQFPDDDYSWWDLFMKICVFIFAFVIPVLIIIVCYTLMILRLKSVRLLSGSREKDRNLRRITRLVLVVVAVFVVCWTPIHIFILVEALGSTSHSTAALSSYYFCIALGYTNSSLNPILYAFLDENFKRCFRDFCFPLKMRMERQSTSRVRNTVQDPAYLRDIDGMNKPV
Neurotensin receptor type 1, sequence (P30989 whole entry): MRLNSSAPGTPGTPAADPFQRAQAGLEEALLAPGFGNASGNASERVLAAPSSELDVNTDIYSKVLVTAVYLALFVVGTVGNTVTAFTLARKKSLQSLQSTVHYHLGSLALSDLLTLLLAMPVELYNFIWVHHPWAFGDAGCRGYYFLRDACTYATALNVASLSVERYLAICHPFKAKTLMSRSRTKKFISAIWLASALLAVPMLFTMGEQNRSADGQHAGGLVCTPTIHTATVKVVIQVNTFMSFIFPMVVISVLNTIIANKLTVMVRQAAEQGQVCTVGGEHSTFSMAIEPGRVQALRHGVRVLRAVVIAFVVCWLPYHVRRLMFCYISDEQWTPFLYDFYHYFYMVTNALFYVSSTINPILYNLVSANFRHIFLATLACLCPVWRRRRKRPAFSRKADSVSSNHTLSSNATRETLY
Synaptic vesicular amine transporter (Homo sapiens), sequence (Q05940 whole entry): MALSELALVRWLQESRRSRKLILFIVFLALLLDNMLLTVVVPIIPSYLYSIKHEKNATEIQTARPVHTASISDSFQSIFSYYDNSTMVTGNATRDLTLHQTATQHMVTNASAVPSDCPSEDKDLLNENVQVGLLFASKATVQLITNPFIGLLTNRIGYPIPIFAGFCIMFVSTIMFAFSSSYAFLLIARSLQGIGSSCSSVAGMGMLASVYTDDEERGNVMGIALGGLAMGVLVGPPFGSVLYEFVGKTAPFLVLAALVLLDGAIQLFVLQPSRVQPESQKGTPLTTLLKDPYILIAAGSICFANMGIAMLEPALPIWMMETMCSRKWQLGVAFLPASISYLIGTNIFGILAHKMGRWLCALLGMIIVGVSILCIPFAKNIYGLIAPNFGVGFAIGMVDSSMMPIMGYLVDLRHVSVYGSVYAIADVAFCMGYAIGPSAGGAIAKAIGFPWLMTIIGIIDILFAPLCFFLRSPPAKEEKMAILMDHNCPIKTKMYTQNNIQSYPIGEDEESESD
D(2) dopamine receptor (Homo sapiens), sequence (P14416 whole entry): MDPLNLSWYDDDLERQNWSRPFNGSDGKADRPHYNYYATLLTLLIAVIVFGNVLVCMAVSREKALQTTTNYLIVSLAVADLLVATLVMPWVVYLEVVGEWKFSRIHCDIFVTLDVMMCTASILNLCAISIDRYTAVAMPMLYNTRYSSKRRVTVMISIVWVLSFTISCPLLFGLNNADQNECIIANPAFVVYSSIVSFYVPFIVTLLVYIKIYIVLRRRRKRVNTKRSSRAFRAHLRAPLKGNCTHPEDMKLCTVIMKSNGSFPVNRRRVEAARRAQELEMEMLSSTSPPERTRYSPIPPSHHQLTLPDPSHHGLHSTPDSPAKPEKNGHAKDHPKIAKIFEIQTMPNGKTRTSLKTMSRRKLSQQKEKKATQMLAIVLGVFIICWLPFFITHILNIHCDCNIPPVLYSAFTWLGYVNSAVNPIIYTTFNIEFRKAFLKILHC
Protein kinase C iota type (Homo sapiens), sequence (P41743 whole entry): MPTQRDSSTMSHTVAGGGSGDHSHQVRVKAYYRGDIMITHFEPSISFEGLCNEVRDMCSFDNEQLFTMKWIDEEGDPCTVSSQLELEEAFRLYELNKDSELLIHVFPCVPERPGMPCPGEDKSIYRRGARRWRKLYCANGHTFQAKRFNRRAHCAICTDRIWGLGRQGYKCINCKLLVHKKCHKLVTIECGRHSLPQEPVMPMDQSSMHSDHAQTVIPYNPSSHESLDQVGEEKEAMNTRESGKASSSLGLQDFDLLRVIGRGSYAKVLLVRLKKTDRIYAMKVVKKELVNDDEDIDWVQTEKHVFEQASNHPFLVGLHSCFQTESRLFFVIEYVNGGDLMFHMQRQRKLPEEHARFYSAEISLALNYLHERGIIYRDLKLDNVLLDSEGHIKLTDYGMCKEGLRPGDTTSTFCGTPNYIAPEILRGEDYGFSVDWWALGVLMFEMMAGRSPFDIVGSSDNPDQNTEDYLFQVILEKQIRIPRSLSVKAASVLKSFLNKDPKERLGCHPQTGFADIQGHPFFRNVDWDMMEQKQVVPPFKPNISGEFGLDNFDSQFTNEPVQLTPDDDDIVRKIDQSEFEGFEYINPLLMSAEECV
Prostaglandin E2 receptor EP1 subtype (Homo sapiens), sequence (P34995 whole entry): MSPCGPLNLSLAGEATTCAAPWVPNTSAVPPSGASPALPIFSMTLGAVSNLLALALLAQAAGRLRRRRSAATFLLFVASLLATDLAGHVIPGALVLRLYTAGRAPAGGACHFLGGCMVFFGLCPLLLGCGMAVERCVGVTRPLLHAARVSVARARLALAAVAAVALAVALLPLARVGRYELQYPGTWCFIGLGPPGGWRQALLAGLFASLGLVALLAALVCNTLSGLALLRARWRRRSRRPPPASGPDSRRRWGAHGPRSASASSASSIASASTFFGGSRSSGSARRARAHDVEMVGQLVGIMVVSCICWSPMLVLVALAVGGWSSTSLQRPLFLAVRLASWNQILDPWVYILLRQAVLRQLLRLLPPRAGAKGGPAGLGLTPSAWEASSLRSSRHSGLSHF
Caspase-6 (Homo sapiens), sequence (P55212 24-179 limits assumed): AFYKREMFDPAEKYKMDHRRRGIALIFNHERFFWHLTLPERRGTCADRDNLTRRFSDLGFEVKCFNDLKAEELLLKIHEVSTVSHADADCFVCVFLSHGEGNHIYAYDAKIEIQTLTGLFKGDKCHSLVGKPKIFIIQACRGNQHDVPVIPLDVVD
Caspase-6 (Homo sapiens), sequence (P55212 194-293 limits assumed): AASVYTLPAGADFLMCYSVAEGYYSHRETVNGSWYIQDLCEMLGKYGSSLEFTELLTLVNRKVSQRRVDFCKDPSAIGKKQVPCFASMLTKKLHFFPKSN
Beta-1 adrenergic receptor (Homo sapiens), sequence (P08588 whole entry, looked up): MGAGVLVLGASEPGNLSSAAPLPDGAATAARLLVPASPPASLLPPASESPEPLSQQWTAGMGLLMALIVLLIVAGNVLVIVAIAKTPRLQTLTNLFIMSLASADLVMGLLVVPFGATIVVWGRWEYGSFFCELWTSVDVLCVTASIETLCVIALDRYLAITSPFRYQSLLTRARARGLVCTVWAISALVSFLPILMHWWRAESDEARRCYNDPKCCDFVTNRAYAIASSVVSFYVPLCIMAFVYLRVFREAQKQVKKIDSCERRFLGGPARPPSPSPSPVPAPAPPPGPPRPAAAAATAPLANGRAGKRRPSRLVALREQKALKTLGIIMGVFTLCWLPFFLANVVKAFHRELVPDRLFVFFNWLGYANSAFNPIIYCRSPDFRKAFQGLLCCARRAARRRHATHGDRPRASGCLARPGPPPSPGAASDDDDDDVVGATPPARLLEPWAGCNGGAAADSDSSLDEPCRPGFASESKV
Galanin receptor type 1 (Homo sapiens), sequence (P47211 whole entry): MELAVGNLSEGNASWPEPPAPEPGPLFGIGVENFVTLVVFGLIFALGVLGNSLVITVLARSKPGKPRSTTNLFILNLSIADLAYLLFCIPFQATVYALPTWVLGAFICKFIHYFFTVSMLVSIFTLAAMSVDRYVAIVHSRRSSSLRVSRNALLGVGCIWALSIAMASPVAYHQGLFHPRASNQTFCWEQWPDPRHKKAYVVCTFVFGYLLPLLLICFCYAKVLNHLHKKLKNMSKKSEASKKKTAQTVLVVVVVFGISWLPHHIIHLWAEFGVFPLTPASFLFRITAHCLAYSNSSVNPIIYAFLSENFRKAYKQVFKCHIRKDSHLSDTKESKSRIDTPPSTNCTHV
5-hydroxytryptamine receptor 6 (Homo sapiens), sequence (P50406 whole entry): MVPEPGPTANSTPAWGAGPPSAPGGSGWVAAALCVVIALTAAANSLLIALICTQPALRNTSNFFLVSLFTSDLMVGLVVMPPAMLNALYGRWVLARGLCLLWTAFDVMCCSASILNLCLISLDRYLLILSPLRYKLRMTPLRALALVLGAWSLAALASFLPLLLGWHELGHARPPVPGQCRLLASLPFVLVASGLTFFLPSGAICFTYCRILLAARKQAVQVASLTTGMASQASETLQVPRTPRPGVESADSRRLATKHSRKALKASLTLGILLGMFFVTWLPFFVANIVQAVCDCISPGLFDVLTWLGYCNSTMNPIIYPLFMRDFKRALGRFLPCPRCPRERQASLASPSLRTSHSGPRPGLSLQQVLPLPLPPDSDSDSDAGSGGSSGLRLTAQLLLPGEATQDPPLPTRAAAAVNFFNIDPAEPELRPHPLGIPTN

O=C(O)c1cc(-c2ccc(C3CCNCC3)cc2)c2ccc(-c3ccc(C(F)(F)F)cc3)cc2c1 [PPTN]
5.16: pKi [23]
inactive: inhibition ([1]; Compound concentration 0.01 uM) -8% | inhibition ([1]; Compound concentration 0.1 uM) 8% | inhibition ([1]; Compound concentration 1.0 uM) 41% | residual activity [2] 82% | inhibition (Rattus norvegicus [3]) 5% | inhibition [4] 29% | inhibition [5] 12% | inhibition [6] 7% | inhibition [7] 19% | inhibition (Homo sapiens [9]; Compound concentration 0.01 uM) 9% | inhibition (Homo sapiens [9]; Compound concentration 0.1 uM) 0% | inhibition (Homo sapiens [9]; Compound concentration 1.0 uM) -7% | inhibition [10] 28% | inhibition (Homo sapiens [11]) 26% | inhibition [12] 11% | inhibition [13] -4% | inhibition [14] 3% | inhibition [15] -5% | inhibition [16] 8% | inhibition ([18]; Compound concentration 0.01 uM) 0% | inhibition ([18]; Compound concentration 0.1 uM) 13% | inhibition [19] 26% | inhibition (Oryctolagus cuniculus) 14% | inhibition ([20]; Compound concentration 0.1 uM) -1% | inhibition ([20]; Compound concentration 1.0 uM) 1% | inhibition [21] 4% | inhibition [22] -3% | inhibition ([23]; Compound concentration 0.01 uM) 11% | inhibition ([23]; Compound concentration 0.1 uM) 10% | inhibition ([23]; Compound concentration 1.0 uM) -9% | inhibition (Caspase-6 (Homo sapiens)) -8% | inhibition (Rattus norvegicus [24]) -3%
8.53: pIC50 [8]
5.06: pIC50 [23]
6.64: pKi [17]
active: inhibition ([1]; Compound concentration 10.0 uM) 59% | inhibition ([18]; Compound concentration 1.0 uM) 65% | inhibition ([18]; Compound concentration 10.0 uM) 97% | inhibition ([20]; Compound concentration 10.0 uM) 63% | inhibition ([23]; Compound concentration 10.0 uM) 69%
6.25: pIC50 [17]
